# Source: the supplement of paper PMC10307832
# Columns and labels:
# Experiment in all cases: relative viability (nuclei count vs DMSO), 5 days (fraction); higher = more cells survive
# 201T = system: 201T
# Method in brief: (§1)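 Relative viability equals treated-well nuclei counts divided by vehicle-well nuclei counts. Counts came from 4× images of lung cancer cell lines grown in 1536-well plates for 5 days after pin-tool dosing on the day after seeding. Dosing used one drug alone or a fixed anchor-drug dose plus five library-drug doses (not always all listed) in √10 steps, and values are medians of duplicate plates.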
# BEN = system: BEN
# Method in brief: as §1
# EMC-BAC-2 = system: EMC-BAC-2
# Method in brief: as §1
# HARA = system: HARA
# Method in brief: as §1
# HCC-44 = system: HCC-44
# Method in brief: as §1
# LCLC-103H = system: LCLC-103H
# Method in brief: as §1
# LOU-NH91 = system: LOU-NH91
# Method in brief: as §1
# NCI-H1395 = system: NCI-H1395
# Method in brief: as §1
# NCI-H1993 = system: NCI-H1993
# Method in brief: as §1
# NCI-H2023 = system: NCI-H2023
# Method in brief: as §1
# NCI-H2087 = system: NCI-H2087
# Method in brief: as §1
# NCI-H2126 = system: NCI-H2126
# Method in brief: as §1
# NCI-H2347 = system: NCI-H2347
# Method in brief: as §1
# NCI-H23 = system: NCI-H23
# Method in brief: as §1
# NCI-H3122 = system: NCI-H3122
# Method in brief: as §1
# NCI-H441 = system: NCI-H441
# Method in brief: as §1
# NCI-H596 = system: NCI-H596
# Method in brief: as §1
# NCI-H647 = system: NCI-H647
# Method in brief: as §1
# NCI-H650 = system: NCI-H650
# Method in brief: as §1
# NCI-H727 = system: NCI-H727
# Method in brief: as §1
# NCI-H838 = system: NCI-H838
# Method in brief: as §1
structure (smiles),measurement,setting,value
Nc1ccn([C@@H]2O[C@H](CO)[C@@H](O)[C@@H]2O)c(=O)n1 [Cytarabine] + C[C@]1(O)C[C@@H](c2nc(-c3ccc4ccc(-c5ccccc5)nc4c3)c3c(N)nccn32)C1 [Linsitinib] (partner 1 µM),relative viability,201T; first compound 0.005 µM,1.1
same,relative viability,201T; first compound 0.01581 µM,1.02
same,relative viability,201T; first compound 0.05 µM,1.03
same,relative viability,201T; first compound 0.1581 µM,0.9
same,relative viability,201T; first compound 0.5 µM,0.886
same,relative viability,BEN; first compound 0.005 µM,0.616
same,relative viability,BEN; first compound 0.01581 µM,0.775
same,relative viability,BEN; first compound 0.05 µM,0.557
same,relative viability,BEN; first compound 0.1581 µM,0.423
same,relative viability,BEN; first compound 0.5 µM,0.307
same,relative viability,EMC-BAC-2; first compound 0.005 µM,0.695
same,relative viability,EMC-BAC-2; first compound 0.01581 µM,0.751
same,relative viability,EMC-BAC-2; first compound 0.05 µM,0.688
same,relative viability,EMC-BAC-2; first compound 0.1581 µM,0.295
same,relative viability,EMC-BAC-2; first compound 0.5 µM,0.247
same,relative viability,HARA; first compound 0.005 µM,0.851
same,relative viability,HARA; first compound 0.01581 µM,0.608
same,relative viability,HARA; first compound 0.05 µM,0.396
same,relative viability,HARA; first compound 0.1581 µM,0.174
same,relative viability,HARA; first compound 0.5 µM,0.0936
same,relative viability,HCC-44; first compound 0.005 µM,0.675
same,relative viability,HCC-44; first compound 0.01581 µM,0.664
same,relative viability,HCC-44; first compound 0.05 µM,0.384
same,relative viability,HCC-44; first compound 0.1581 µM,0.48
same,relative viability,HCC-44; first compound 0.5 µM,0.397
same,relative viability,LCLC-103H; first compound 0.005 µM,0.976
same,relative viability,LCLC-103H; first compound 0.01581 µM,1.22
same,relative viability,LCLC-103H; first compound 0.05 µM,1.12
same,relative viability,LCLC-103H; first compound 0.1581 µM,1.09
same,relative viability,LCLC-103H; first compound 0.5 µM,1.18
same,relative viability,LOU-NH91; first compound 0.005 µM,0.996
same,relative viability,LOU-NH91; first compound 0.01581 µM,0.904
same,relative viability,LOU-NH91; first compound 0.05 µM,0.82
same,relative viability,LOU-NH91; first compound 0.1581 µM,0.54
same,relative viability,LOU-NH91; first compound 0.5 µM,0.566
same,relative viability,NCI-H1395; first compound 0.005 µM,0.89
same,relative viability,NCI-H1395; first compound 0.01581 µM,0.709
same,relative viability,NCI-H1395; first compound 0.05 µM,0.784
same,relative viability,NCI-H1395; first compound 0.1581 µM,0.466
same,relative viability,NCI-H1395; first compound 0.5 µM,0.38
same,relative viability,NCI-H1993; first compound 0.005 µM,0.703
same,relative viability,NCI-H1993; first compound 0.01581 µM,0.795
same,relative viability,NCI-H1993; first compound 0.05 µM,0.672
same,relative viability,NCI-H1993; first compound 0.1581 µM,0.539
same,relative viability,NCI-H1993; first compound 0.5 µM,0.471
same,relative viability,NCI-H2023; first compound 0.005 µM,0.492
same,relative viability,NCI-H2023; first compound 0.01581 µM,0.302
same,relative viability,NCI-H2023; first compound 0.05 µM,0.149
same,relative viability,NCI-H2023; first compound 0.1581 µM,0.0967
same,relative viability,NCI-H2023; first compound 0.5 µM,0.0876
same,relative viability,NCI-H2087; first compound 0.005 µM,0.958
same,relative viability,NCI-H2087; first compound 0.01581 µM,1.07
same,relative viability,NCI-H2087; first compound 0.05 µM,0.827
same,relative viability,NCI-H2087; first compound 0.1581 µM,0.752
same,relative viability,NCI-H2087; first compound 0.5 µM,0.623
same,relative viability,NCI-H2126; first compound 0.005 µM,0.71
same,relative viability,NCI-H2126; first compound 0.01581 µM,0.661
same,relative viability,NCI-H2126; first compound 0.05 µM,0.647
same,relative viability,NCI-H2126; first compound 0.1581 µM,0.486
same,relative viability,NCI-H2126; first compound 0.5 µM,0.474
same,relative viability,NCI-H2347; first compound 0.005 µM,1.02
same,relative viability,NCI-H2347; first compound 0.01581 µM,0.932
same,relative viability,NCI-H2347; first compound 0.05 µM,0.822
same,relative viability,NCI-H2347; first compound 0.1581 µM,0.32
same,relative viability,NCI-H2347; first compound 0.5 µM,0.649
same,relative viability,NCI-H23; first compound 0.005 µM,0.544
same,relative viability,NCI-H23; first compound 0.01581 µM,0.417
same,relative viability,NCI-H23; first compound 0.05 µM,0.294
same,relative viability,NCI-H23; first compound 0.1581 µM,0.157
same,relative viability,NCI-H23; first compound 0.5 µM,0.14
same,relative viability,NCI-H3122; first compound 0.005 µM,0.995
same,relative viability,NCI-H3122; first compound 0.01581 µM,0.893
same,relative viability,NCI-H3122; first compound 0.05 µM,0.948
same,relative viability,NCI-H3122; first compound 0.1581 µM,0.72
same,relative viability,NCI-H3122; first compound 0.5 µM,0.476
same,relative viability,NCI-H441; first compound 0.005 µM,0.467
same,relative viability,NCI-H441; first compound 0.01581 µM,0.476
same,relative viability,NCI-H441; first compound 0.05 µM,0.406
same,relative viability,NCI-H441; first compound 0.1581 µM,0.232
same,relative viability,NCI-H441; first compound 0.5 µM,0.122
same,relative viability,NCI-H596; first compound 0.005 µM,1.03
same,relative viability,NCI-H596; first compound 0.01581 µM,0.857
same,relative viability,NCI-H596; first compound 0.05 µM,0.763
same,relative viability,NCI-H596; first compound 0.1581 µM,0.658
same,relative viability,NCI-H596; first compound 0.5 µM,0.628
same,relative viability,NCI-H647; first compound 0.005 µM,0.729
same,relative viability,NCI-H647; first compound 0.01581 µM,0.55
same,relative viability,NCI-H647; first compound 0.05 µM,0.394
same,relative viability,NCI-H647; first compound 0.1581 µM,0.148
same,relative viability,NCI-H647; first compound 0.5 µM,0.061
same,relative viability,NCI-H650; first compound 0.005 µM,0.763
same,relative viability,NCI-H650; first compound 0.01581 µM,0.475
same,relative viability,NCI-H650; first compound 0.05 µM,0.379
same,relative viability,NCI-H650; first compound 0.1581 µM,0.209
same,relative viability,NCI-H650; first compound 0.5 µM,0.234
same,relative viability,NCI-H727; first compound 0.005 µM,0.251
same,relative viability,NCI-H727; first compound 0.01581 µM,0.254
same,relative viability,NCI-H727; first compound 0.05 µM,0.318
same,relative viability,NCI-H727; first compound 0.1581 µM,0.19
same,relative viability,NCI-H727; first compound 0.5 µM,0.215
same,relative viability,NCI-H838; first compound 0.005 µM,1.07
same,relative viability,NCI-H838; first compound 0.01581 µM,1.01
same,relative viability,NCI-H838; first compound 0.05 µM,0.875
same,relative viability,NCI-H838; first compound 0.1581 µM,0.418
same,relative viability,NCI-H838; first compound 0.5 µM,0.295
